In experiment [1] the test system is 5-HT3. Kind of experiment: Bezold-Jarisch reflex: reduction of 5-HT-induced bradycardia in anesthetized mice. The experiment is classed as in vivo. To be noted: i.p., 30 min before 5-HT 0.25 mg/kg i.v.; >50% reduction of bradycardia considered significant. The method, then: (§1) 5-HT4 agonist activity was determined in the in vitro rat tunica muscularis mucosae (TMM) assay. (Baxter et al., Naunyn Schmied Arch. Pharmacol, 1991, 343, 439). The 5-HT4 agonist or antagonist and/or 5-HT3 antagonist activity of the compounds of the invention can be determined by these assays described herein, without undue experimentation.
The compound to be evaluated was administered i.p. (mg/kg) to a group of 3 mice. […] This method has been described by Saxena, P. R. and Lawang, A., Arch. Int. Pharmacodyn., 277: 235-252, 1985.

For experiment [2], the target named is T1, 5-HT3 receptor (Rattus norvegicus, UniProt P35563).
T1 construct: Brain cortices were obtained from male rats and a membrane fraction prepared by standard techniques; from tissue; host or cells: rat brain cortex, membrane fraction
T1 sequence (P35563 24-483): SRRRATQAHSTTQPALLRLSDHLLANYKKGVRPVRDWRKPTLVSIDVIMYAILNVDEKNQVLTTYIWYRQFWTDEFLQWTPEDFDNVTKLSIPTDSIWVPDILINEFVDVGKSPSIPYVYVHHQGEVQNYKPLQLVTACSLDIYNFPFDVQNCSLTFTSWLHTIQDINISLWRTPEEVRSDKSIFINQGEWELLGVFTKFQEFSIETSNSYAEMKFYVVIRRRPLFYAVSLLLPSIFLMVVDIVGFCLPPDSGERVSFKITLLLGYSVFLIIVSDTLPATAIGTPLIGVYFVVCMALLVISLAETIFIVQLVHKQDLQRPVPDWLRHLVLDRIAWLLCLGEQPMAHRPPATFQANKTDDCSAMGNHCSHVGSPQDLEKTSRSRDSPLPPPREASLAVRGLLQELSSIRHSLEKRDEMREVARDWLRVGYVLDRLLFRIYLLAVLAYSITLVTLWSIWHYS
Kind of experiment: [3H]-GR65630 radioligand binding to 5-HT3 receptor, rat brain cortex membranes. The method, then: as §1
GR65630 binds to the 5-HT3 receptor. Brain cortices were obtained from male rats and a membrane fraction prepared by standard techniques. 0.04 mg of membrane prep was incubated with 0.2 nM […] for 60 minutes at 22° C. […] Membranes were filtered and washed 3 times and the filters were counted to determine [3H]-GR65630 specifically bound. (Kilpatrick G. J., Jones B. J. and Tyers M. B. Identification and distribution of 5-HT3 receptors in rat brain using radioligand binding. Nature, 330: 746-748, 1987).

Experiment [3] concerns the target T2, 5-HT4 receptor (Rattus norvegicus, UniProt Q62758).
T2 construct: The inner tunica muscularis mucosa was mounted under 0.2-0.3 g of tension in a tissue bath; from tissue; host or cells: rat intrathoracic esophagus, tunica muscularis mucosae
The experiment is described as follows: In vitro functional assay for serotonin 5-HT4 agonism: rat TMM (relaxation of carbachol-contracted tunica muscularis mucosae). The experiment is classed as biochemical. To be noted: rat esophagus, carbachol (3 μM) contracted, 37° C, tissues from 5 rats. Here is the method:
as §1
Agonist activity was determined utilizing relaxation of carbachol-contracted rat tunica muscularis mucosae. One 2 cm segment of intrathoracic esophagus proximal to the diaphragm was removed from male rats, weighing approximately 300 gm, and the outer muscle layers removed. The inner tunica muscularis mucosa was mounted under 0.2-0.3 g of tension in a tissue bath containing oxygenated Tyrode's solution at 37° C. […] Following a 30 min equilibrium period, tissues were isometrically contracted with carbachol (3 μM) to obtain a tonic contraction. A stable plateau was obtained within 20 min when test compound was added cumulatively to relax the muscle strip. EC50 values were obtained for each agonist in tissues from 5 rats.

As a reminder, the IC50 is the concentration that inhibits the measured activity by half. A high value points to lower potency. In general, Ki refers to the dissociation constant of the complex between target and ligand, obtained from inhibition or displacement. Low readings indicate tighter binding, high ones weaker binding. The term EC50 denotes the concentration at which the effect is half-maximal. Read a high EC50 as lower potency in that assay.

Structures are written as SMILES. Some results are limits rather than exact numbers.

T2 sequence (Q62758 whole entry): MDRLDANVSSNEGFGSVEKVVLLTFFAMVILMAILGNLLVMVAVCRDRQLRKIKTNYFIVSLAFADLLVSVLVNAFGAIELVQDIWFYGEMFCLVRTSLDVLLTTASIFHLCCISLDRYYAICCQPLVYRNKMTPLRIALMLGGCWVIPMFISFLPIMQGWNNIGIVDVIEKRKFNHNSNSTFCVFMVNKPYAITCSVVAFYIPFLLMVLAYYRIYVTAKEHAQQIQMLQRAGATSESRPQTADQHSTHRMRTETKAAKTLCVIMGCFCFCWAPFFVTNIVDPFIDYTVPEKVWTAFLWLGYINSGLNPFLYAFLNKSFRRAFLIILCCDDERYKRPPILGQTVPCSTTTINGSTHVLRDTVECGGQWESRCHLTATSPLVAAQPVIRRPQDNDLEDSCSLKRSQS

Turning to `CN1C2CCCC1CC(NC(=O)c1nn(C)c3ccccc13)C2` (stereo not shown) [BRL-43694], in experiment [1], the “Minimum Effective Dose (MED)” value is listed as 0.05 mg/kg. In experiment [2] ([3H]-GR65630 bound (0.2 nM)), `CC(C)n1c(=O)n(C(=O)NCC23CCN(CC2)CC3)c2ccccc21` [Example 10, N-(1-azabicyclo[2.2.2]octan-4-ylmethyl)-2,3-dihydro-3-(1-methylethyl)-2-oxo-1H-benzimidazole-1-carboxamide] showed an IC50 of 8.6 nM and a Ki of 4.3 nM. In experiment [3], this compound came in with an EC50 of 125 nM. For the same compound, the “Minimum Effective Dose (MED)” value in experiment [1] amounted to 0.03 mg/kg.

In the case of `Cc1[nH]cnc1CCC(=O)c1cn(C)c2ccccc12` [GR65630], in experiment [2] ([3H]-GR65630, non-specific binding with 1 uM ICS 205-930), the “% Specific Binding” value is given as 70%. As to `CN1C2CCC1CC(OC(=O)c1c[nH]c3ccccc13)C2` (stereo not shown) [ICS 205-930], the “Hill Coefficient” value in experiment [2] ([3H]-GR65630 bound (0.2 nM)) is recorded as 1.0. For the compound `c1ccc2nc(N3CCNCC3)ccc2c1` [Quipazine], in experiment [2] ([3H]-GR65630 bound (0.2 nM)), the “Hill Coefficient” value was 0.86. On to `COc1ccc2[nH]cc(C3=CCNCC3)c2c1` [RU24969], for which, in experiment [2] ([3H]-GR65630 bound (0.2 nM)), the “Hill Coefficient” value turned out to be 1.0. In the case of `COc1cc(N)c(Cl)cc1C(=O)NC1CN2CCC1CC2` (stereo not shown) [Zacopride], the “Hill Coefficient” value in experiment [2] ([3H]-GR65630 bound (0.2 nM)) is 0.86. As for `O=c1[nH]c2ccccc2n1CCCN1CCC(n2c(=O)[nH]c3cc(Cl)ccc32)CC1` [domperidone], in experiment [1], the “Minimum Effective Dose (MED)” value is greater than 10 mg/kg.

For `CCN(CC)CCNC(=O)c1cc(Cl)c(N)cc1OC` [metoclopramide], the “Minimum Effective Dose (MED)” value in experiment [1] worked out at 5 mg/kg. The same measure, in the same setting: as for `CN1[C@@H]2C[C@@H](OC(=O)[C@H](CO)c3ccccc3)C[C@H]1[C@@H]1O[C@@H]12` [scopolamine], the figure is 2.5 mg/kg.

The values above are taken from patent US5300512A, “Benzimidazole compounds” (G. D. Searle & Co., priority 1992, dated 1994).
